Experimental data from US9725683B2, “Surfactants and methods of making and using same” (priority 2013, dated 2017).

Key:
[1] = Surface Tension Test Method (Kruss K12 tensiometer, Wilhelmy plate); format: physicochemical
Experimental: Surface Tension Test Method
Surface tension was measured using a K12 process tensiometer (available from Kruss GmbH of Hamburg, Germany) using a Wilhemly plate method with a platinum PL01 plate (available from Krüss GmbH). Forty milliliters of the solution to be tested were placed in a 60 mL glass snap cap jar with an inner diameter of approximately 1.5 inches.

[2] = Solubility of neutral fluorinated surfactants in water at 22° C. (capillary GC of saturated solutions); format: physicochemical; details: pure deionized water
Experimental: Various neutral fluorinated surfactants were tested to determine their solubility in pure deionized water.

[3] = aqueous ammonium hydroxide, mole ratio 2.0, same concentrations
[4] = aqueous TMAH, mole ratio 1.0, equivalent concentrations
[5] = aqueous TMAH, mole ratio 2.0, same concentrations

SMILES	Surface tension in water compared [1, 3]	% Soluble in water at 22 Deg C. [2]	melting point [°C]	Surface tension in water compared [1, 4]	Surface tension in water compared [1, 5]
O=S(=O)(NCCO)C(F)(F)C(F)(F)C(F)(F)C(F)(F)F [A, reference compound]	roughly equivalent surface tensions	–	–	–	–
O=S(=O)(N(CCO)CCO)C(F)(F)C(F)(F)C(F)(F)C(F)(F)F [B, reference compound]	–	0.0592%	–	–	–
CN(CCO)S(=O)(=O)C(F)(F)C(F)(F)C(F)(F)C(F)(F)F [C, reference compound]	–	0.118%	–	–	–
CC(O)CNS(=O)(=O)C(F)(F)C(F)(F)C(F)(F)C(F)(F)F (centres unmarked) [I, C4F9SO2N(H)CH2CH(CH3)OH]	roughly equivalent surface tensions	–	80.33	–	–
O=S(=O)(NCCOCCO)C(F)(F)C(F)(F)C(F)(F)C(F)(F)F [III, C4F9SO2N(H)CH2CH2OCH2CH2OH]	lower surface tension in water than the H-FBSE	–	35.7	significantly lower surface tensions than H-FBSE	significantly lower surface tension in water than H-FBSE
O=S(=O)(N(CCOCCO)CCOCCO)C(F)(F)C(F)(F)C(F)(F)C(F)(F)F [IV, C4F9SO2N(CH2CH2OCH2CH2OH)2]	–	0.101%	–	–	–
O=S(=O)(N(CCO)CCOCCO)C(F)(F)C(F)(F)C(F)(F)C(F)(F)F [V, C4F9SO2N(CH2CH2OCH2CH2OH)(CH2CH2OH)]	–	100 (miscible)^ %	45.1	–	–
CN(CCOCCO)S(=O)(=O)C(F)(F)C(F)(F)C(F)(F)C(F)(F)F [VI, C4F9SO2N(CH3)(CH2CH2OCH2CH2OH)]	–	0.232%	80.5	–	–
O=S(=O)(NCCOCCOCCO)C(F)(F)C(F)(F)C(F)(F)C(F)(F)F [VIII, C4F9SO2NH(CH2CH2OCH2CH2OCH2CH2OH)]	lowest surface tension in water of all the materials tested	–	–	significantly lower surface tensions than H-FBSE	significantly lower surface tension in water than H-FBSE
